Results on 37 compounds are retold here after ChEMBL document CHEMBL1201862, “PubChem BioAssay data set” (2004).

For data set [1], the target named is T1, Protein skinhead-1 (Caenorhabditis elegans, UniProt P34707).
T1 sequence (P34707 whole entry): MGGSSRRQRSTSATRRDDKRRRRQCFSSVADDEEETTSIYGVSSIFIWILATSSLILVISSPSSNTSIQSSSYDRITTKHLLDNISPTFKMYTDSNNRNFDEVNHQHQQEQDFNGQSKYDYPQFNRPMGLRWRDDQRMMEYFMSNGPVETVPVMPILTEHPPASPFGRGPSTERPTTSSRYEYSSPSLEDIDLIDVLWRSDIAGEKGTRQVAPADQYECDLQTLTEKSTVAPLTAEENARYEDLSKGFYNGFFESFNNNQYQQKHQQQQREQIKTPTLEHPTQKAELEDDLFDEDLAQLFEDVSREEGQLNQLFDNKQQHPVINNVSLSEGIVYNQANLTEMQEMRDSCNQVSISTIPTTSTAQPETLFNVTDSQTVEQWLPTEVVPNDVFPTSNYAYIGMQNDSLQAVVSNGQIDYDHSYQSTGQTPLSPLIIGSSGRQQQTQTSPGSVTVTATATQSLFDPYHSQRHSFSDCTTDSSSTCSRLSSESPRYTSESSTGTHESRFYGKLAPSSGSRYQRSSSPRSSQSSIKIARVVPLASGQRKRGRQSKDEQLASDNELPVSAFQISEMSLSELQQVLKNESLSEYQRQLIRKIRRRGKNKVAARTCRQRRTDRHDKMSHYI
It is filed as functional.

Data set [2] addresses Cytochrome P450 2D6 (Homo sapiens, UniProt P10635).
Data set [3] has as its target T2, Cytochrome P450 1A2 (Homo sapiens, UniProt P05177).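 Note: PubChem cytochrome P450 panel assay, CYP1A2 panel member.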
T2 sequence (P05177 whole entry): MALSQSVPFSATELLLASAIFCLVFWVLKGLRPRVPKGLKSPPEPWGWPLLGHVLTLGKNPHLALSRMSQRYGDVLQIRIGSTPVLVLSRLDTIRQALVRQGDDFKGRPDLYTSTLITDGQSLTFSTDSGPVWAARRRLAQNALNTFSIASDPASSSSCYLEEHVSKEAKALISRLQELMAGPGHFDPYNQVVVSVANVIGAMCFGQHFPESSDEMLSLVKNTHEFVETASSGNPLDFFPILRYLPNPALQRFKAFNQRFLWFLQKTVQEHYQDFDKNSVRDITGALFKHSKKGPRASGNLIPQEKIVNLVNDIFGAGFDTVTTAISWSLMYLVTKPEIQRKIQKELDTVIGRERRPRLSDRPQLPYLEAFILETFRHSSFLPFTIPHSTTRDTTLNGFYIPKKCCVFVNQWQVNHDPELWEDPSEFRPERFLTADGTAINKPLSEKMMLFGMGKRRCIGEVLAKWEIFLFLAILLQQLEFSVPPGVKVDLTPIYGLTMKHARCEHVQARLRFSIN

Data set [4] can be described thus: HEp-2 cell cytotoxicity, dose response, cytotoxicity control for RSV inhibitor project, HTS (AID 2410). The data set is classed as functional. The conditions noted are these: human respiratory syncytial virus.
Data set [5] has as its target T3, Polyadenylate-binding protein 1 (Homo sapiens, UniProt P11940). Nature of the data set: PABP1 MLLE–PAM2 interaction inhibitors, dose response, miRNA deadenylation inhibitor project, biochemical, fluorescence polarization, Cy5-PAM2 peptide, secondary (AID 602260). It is filed as functional. To be noted: read-out: IC50_Mean.
Data set [6] has as its target T3, Polyadenylate-binding protein 1. Description: PABP1 MLLE–PAM2 binding inhibitor potency, dose response, biochemical, fluorescence polarization, FITC-PAM2 peptide (AID 602259). The data set is classed as functional. The conditions noted are these: read-out: IC50_Mean.
In data set [7] the target is Cytochrome P450 2C19 (Homo sapiens, UniProt P33261). Nature of the data set: Cytochrome panel assay with activity outcomes. Panel member name: p450-cyp2c19 Compounds with AC50 equal or less than 10 uM are considered active. The data set is classed as functional.
Cytochrome P450 2C19, sequence (P33261 whole entry): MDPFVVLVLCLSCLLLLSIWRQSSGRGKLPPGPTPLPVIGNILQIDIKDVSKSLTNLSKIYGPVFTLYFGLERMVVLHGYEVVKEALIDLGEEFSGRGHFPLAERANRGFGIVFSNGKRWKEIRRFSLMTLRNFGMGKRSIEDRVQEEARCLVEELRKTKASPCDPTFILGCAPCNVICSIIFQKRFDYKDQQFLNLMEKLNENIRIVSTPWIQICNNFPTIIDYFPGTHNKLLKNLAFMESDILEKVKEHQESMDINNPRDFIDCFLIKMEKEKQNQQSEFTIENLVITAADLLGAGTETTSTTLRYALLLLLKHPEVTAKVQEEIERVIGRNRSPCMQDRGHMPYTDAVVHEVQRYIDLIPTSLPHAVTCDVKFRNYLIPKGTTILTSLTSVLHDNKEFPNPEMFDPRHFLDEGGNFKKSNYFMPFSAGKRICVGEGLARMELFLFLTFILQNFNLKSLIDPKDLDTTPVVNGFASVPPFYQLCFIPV
For data set [8], the target named is T4, RNA-binding protein pos-1 (Caenorhabditis elegans, UniProt G5EF15).
T4 sequence (G5EF15 whole entry): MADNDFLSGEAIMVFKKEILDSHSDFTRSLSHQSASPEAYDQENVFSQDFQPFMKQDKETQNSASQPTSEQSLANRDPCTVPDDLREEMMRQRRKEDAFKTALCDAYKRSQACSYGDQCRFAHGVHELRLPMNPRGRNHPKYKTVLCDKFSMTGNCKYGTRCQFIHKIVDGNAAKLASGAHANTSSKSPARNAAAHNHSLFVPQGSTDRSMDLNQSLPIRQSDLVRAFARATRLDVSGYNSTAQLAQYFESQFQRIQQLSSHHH
Nature of the data set: inhibitors of POS-1/mex-3 RNA binding, dose response, biochemical, fluorescence polarization (AID 1964).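 Note: purified POS-1 fused to maltose binding protein made in E. coli; potency of compounds blocking POS-1 binding to fluorescent RNA.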

The target of data set [9] is T5, Zinc finger protein mex-5 (Caenorhabditis elegans, UniProt Q9XUB2).
T5 sequence (Q9XUB2 whole entry): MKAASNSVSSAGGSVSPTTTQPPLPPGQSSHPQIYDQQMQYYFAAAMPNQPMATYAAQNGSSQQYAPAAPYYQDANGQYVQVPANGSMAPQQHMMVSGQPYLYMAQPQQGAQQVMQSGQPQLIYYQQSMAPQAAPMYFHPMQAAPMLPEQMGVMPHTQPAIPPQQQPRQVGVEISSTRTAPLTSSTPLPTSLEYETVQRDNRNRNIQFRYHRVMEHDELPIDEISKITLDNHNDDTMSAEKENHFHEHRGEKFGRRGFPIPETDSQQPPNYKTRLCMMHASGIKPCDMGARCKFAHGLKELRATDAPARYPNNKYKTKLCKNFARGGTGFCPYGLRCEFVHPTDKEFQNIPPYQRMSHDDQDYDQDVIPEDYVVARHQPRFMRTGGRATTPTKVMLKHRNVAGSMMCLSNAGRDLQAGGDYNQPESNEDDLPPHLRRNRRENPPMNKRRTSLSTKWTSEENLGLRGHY
Nature of the data set: MEX-5/TCR-2 RNA interaction inhibitors, dose response, biochemical, C. elegans, fluorescence polarization (AID 1960).

Data set [10] is described as follows: microbe, parasite or virus in culture. It is filed as functional. The conditions noted are these: Mycobacterium tuberculosis.
Data set [11] deals with INS1. Description: beta cell apoptosis inhibitors, cytokine rescue, dose response, luminescence, retest (AID 449756).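 Note: cell death triggered by IL-1 beta plus TNF-alpha plus IFN-gamma mixture; protective hits raise ATP signal compared with cytokine alone wells.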 It is filed as functional, cell-based. To be noted: Rattus norvegicus.
The nature of data set [12]: Luminescence Cell-Based Dose Retest to Confirm Inhibitors of Cancer Stem Cells. [Related pubchem assays (depositor defined):AID2717, AID2721]. To be noted: Homo sapiens. It is filed as functional.
Data set [13] relates to H4. Nature of the data set: Luminescence Cell-Based Dose Response HTS to Identify Activators of 5'UTR Stem-Loop Driven Prion Protein mRNA Translation in H4 Neuroglioblastoma Cells. [Related pubchem assays: 1829 (Project Summary), 1814 (Primary HTS)]. The data set is classed as functional. The conditions noted are these: Homo sapiens.
Data set [14] is described as follows: Luminescence Cell-Based Dose Response HTS to Identify Activators of Luciferase Translation or Activity in H4 […] Cells. [Related pubchem assays: 1829 (Project Summary), 1814 (Primary HTS)]. The data set is classed as functional.
In data set [15] the target is Cytochrome P450 2C9 (Homo sapiens, UniProt P11712).
Cytochrome P450 2C9, sequence (P11712 whole entry): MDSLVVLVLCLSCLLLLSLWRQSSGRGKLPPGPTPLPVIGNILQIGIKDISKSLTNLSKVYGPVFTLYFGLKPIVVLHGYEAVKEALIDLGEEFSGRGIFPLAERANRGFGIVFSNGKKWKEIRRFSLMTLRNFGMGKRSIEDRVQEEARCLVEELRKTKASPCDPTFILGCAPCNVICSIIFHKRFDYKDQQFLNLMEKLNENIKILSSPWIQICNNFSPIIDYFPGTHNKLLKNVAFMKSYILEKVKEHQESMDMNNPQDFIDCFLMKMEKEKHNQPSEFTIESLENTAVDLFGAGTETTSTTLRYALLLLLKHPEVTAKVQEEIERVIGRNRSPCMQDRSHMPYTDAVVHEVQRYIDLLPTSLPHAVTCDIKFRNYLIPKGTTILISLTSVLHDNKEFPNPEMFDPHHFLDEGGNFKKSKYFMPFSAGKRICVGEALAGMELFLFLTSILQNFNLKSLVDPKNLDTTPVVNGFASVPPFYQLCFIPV

Calls of active or inactive are those of the source.

T3 sequence (P11940 whole entry): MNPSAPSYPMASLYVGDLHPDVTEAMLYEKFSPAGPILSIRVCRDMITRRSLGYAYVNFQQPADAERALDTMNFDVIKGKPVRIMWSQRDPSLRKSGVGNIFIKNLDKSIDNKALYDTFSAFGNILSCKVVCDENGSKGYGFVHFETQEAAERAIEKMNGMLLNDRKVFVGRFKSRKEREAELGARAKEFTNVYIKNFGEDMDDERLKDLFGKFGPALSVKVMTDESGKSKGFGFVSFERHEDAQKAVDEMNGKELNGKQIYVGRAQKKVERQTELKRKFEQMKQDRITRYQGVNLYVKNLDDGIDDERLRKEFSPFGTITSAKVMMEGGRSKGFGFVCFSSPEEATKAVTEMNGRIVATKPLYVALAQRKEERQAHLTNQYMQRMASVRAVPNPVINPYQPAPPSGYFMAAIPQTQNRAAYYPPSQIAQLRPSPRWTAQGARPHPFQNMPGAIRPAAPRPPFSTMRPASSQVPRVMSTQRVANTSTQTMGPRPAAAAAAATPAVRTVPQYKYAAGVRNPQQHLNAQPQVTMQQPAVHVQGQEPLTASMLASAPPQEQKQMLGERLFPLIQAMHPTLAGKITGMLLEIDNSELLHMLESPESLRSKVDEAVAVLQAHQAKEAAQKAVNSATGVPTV
Cytochrome P450 2D6, sequence (P10635 whole entry): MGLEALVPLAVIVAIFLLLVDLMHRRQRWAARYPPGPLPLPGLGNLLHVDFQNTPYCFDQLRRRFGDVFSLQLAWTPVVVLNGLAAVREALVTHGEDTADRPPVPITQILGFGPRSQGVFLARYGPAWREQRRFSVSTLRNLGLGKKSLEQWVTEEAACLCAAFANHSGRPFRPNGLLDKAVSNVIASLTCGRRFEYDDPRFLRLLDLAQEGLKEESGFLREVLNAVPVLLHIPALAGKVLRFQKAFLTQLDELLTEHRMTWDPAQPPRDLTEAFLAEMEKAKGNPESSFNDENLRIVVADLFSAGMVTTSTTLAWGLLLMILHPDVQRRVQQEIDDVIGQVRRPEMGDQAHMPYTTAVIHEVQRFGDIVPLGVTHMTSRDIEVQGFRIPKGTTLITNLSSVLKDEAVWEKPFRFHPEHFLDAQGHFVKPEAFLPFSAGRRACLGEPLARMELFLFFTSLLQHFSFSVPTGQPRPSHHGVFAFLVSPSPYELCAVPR

Take `Cc1ccc(C2=NN(S(C)(=O)=O)C(c3ccc4c(c3)OCO4)C2)cc1` (centres undefined): the IC50 in data set [1] is > 100 µM (inactive).
With `CN(C)c1ccc(/C=C(\C#N)C(=O)Nc2nc3c(s2)CCN(Cc2ccccc2)C3)cc1`, the IC50 in data set [1] was > 100 µM (inactive).
Take `O[C@@H](c1cc(C(F)(F)F)nc2c(Cl)cc(Cl)cc12)[C@@H]1CCCCN1`: in data set [2], the AC50 was 3.16 µM (inconclusive).
Regarding `Cc1ccc(S(=O)(=O)CCC(=O)Nc2nc3c(s2)CCCC3)cc1`, the AC50 is 15.8 µM (inconclusive) in data set [3] and 28.2 µM (inconclusive) in data set [2]. In [4], the CC50 is 32.3 µM (active).
In the case of `CC[C@@H]1CN2CCc3cc(OC)c(OC)cc3[C@H]2C[C@@H]1C[C@@H]1NCCc2cc(O)c(OC)cc21`, the AC50 in data set [2] was 10 µM (inconclusive).
Consider `Cc1cc2cc(CNC(=O)CCC(=O)O)ccc2n1C`, for which the IC50 in data set [1] was > 100 µM (inactive).
With `COc1ccc(NC(S)=Nc2cccc(Cl)c2)cc1OC`, the IC50 in data set [5] and in data set [6] was > 66 µM (inactive) each time.
Turning to `O=C(O)c1ccc(Cn2cnc3cccnc32)cc1`, the results for the IC50 in [5] and in [6] were > 66 µM (inactive) and 55.8 µM (inactive), respectively.
In the same order, the values of `CCc1cc(C(=O)c2ccccc2OC)c(N)s1` are > 66 µM (inactive) and > 66 µM (inactive).
Turning to `COC(=O)c1cc(NS(=O)(=O)c2ccc(N3CCCCC3)c([N+](=O)[O-])c2)cc(C(=O)OC)c1`, the figures for the AC50 in data set [7] (read-out: AC50), in data set [3] and in data set [2] were 2.51 µM (inconclusive), 15.8 µM (inconclusive) and 10 µM (inconclusive), respectively.
Consider `COc1cccc(C(=O)NCC(=O)NNc2ncnc(N)c2[N+](=O)[O-])c1`, for which the EC50 in [8] was > 300 µM (inconclusive); in [9] it was < 0.06 µM (inconclusive).
Turning to `CCCNC(=O)COC(=O)C1CCN(S(=O)(=O)c2ccc3c(c2)OCCO3)CC1`, the IC50 in data set [1] was > 100 µM (inactive).
As to `Cc1ccc2c(c1)C(c1ccc(N3CCOCC3)cc1)=NNC(c1cccs1)=N2`, the CC50 in data set [10] was 38.6 µM (active).
In the case of `Cc1oncc1-c1csc(-c2ccccc2Cl)n1`, the IC50 in data set [1] was > 100 µM (inactive).
In the case of `CCc1ccc(OCCCC(=O)Nc2ccc(N3CCCCC3)cc2)cc1`, the figures for the AC50 in data set [7] (read-out: AC50) and in data set [2] were 10 µM (inconclusive) and 1.26 µM (inconclusive), respectively.
Regarding `CCOc1ccccc1N=C(S)NNS(=O)(=O)c1c(C)cc(C)cc1C`, the IC50 in data set [5] and in [6] was > 66 µM (inactive) each time.
As to `O=C(CSc1nc2cc(Br)c[nH]c-2n1)Nc1ccc2c(c1)OCO2`, in [10], the CC50 was > 40 µM (active).
Regarding `Cc1ccc(-c2c(C)nn3c(N4CCOCC4)cc(C)nc23)cc1`, the IC50 in [1] was > 100 µM (inactive).
On to `CS(=O)(=O)N1CCC2(CCN(c3ccncc3)CC2)CC1`, for which the AC50 in data set [2] is 25.1 µM (inconclusive).
Take `CC(C)(C)C1CCc2sc(-c3nnc(CCl)o3)cc2C1` (centres undefined): the CC50 in data set [10] was 21 µM (active).
With `CN(C)c1ccc(-c2cc(O)c3ncccc3c2)cc1`, the values for the AC50 in data set [11] and in [12] were 5.16 µM (active) and 7.11 µM (active), respectively. The CC50 in data set [10] was 23.2 µM (active).
Take `c1csc(CSc2nc3ccccc3s2)c1`: the IC50 in data set [1] was 27.5 µM (active). For the same compound, the figures for the EC50 in [13] and in data set [14] were 36.9 µM (active) and 1.12 µM (active), respectively.
On to `O=C(NC(=S)Nc1ccc2oc(=O)ccc2c1)c1ccco1`, for which the IC50 in data set [5] and in data set [6] was > 66 µM (inactive) each time.
As to `O=C(CN1C(=O)S/C(=C\c2ccccc2)C1=O)NCCCn1ccnc1`, the IC50 in data set [5] and in [6] was > 66 µM (inactive) throughout.
For the compound `COCCCN=C(S)N(CCO)Cc1cc2cc3c(cc2nc1O)OCCO3`, the IC50 in data set [5] and in data set [6] was > 66 µM (inactive) in each case.
Turning to `CCN(CCO)C[C@H]1CCC[C@H]2CCCC[C@@H]21`, the AC50 in data set [2] is 6.31 µM (inconclusive).
On to `Cc1nn(-c2ccccc2)c(N)c1C(c1ccc(C(C)C)cc1)c1c(C)nn(-c2ccccc2)c1N`, for which the CC50 in data set [10] is > 40 µM (active).
Turning to `c1ccc(Cn2nnc3c(NCCN4CCOCC4)ncnc32)cc1`, in data set [1], the IC50 is > 100 µM (inactive).
The same measure, in the same setting: next, `O=C(NCc1ccco1)c1sc2cc(F)ccc2c1Cl`: > 100 µM (inactive); `CC(C)Cn1c(N)c(C(=O)CSc2nnnn2C)c(=O)n(C)c1=O`: > 100 µM (inactive).
For the compound `O=C(NC(=S)Nc1ccccc1)c1cncc(C#Cc2ccccc2)c1`, the IC50 in [5] and in [6] was > 66 µM (inactive) in each case.
In the case of `CN(C)c1ncc2nc(-c3cccc(C#N)c3)c(=O)n(CCC#N)c2n1`, the AC50 entry in data set [15] is “inconclusive”; in [2], 39.8 µM (inconclusive).
`Fc1ccc(Nc2ncncc2-c2ccccc2C(F)(F)F)cc1`: the AC50 was 20 µM (inconclusive) in data set [3] and 39.8 µM (inconclusive) in [2].
On to `CCn1nnc2sc3c(c2c1=O)CCC(C)C3` (centres undefined), for which the IC50 in [1] is > 100 µM (inactive).
In the case of `CCOc1cc(CNCCSc2nnnn2C)cc(Br)c1OCc1ccc(F)cc1`, the IC50 in data set [1] is 6.7 µM (active).
For `O=C1c2ccccc2-c2cc3ccccc3cc21`, the IC50 in data set [5] and in data set [6] was > 66 µM (inactive) throughout.
For `N=C(N)Nc1ccc(Cl)cc1`, the AC50 entry in data set [7] was “inconclusive”; in data set [2], 31.6 µM (inconclusive).
